Assay results taken from patent publication US20190307843A1, “SINGLE DOSE METHODS FOR PREVENTING AND TREATING FUNGAL INFECTIONS” (Cidara Therapeutics, Inc., priority 2016, published 2019).
Where two headings read alike, the source gives them in different places. Starred links: 1 amine or outer side, 2 acyl side, 3 side chain; linkers in the order of their positions; H or OH if unused. Positions of bridges follow the written chain, without caps; N, C: chain ends. Non-standard residues stand in square brackets, D forms with d. Residues, ends and D or L forms follow the SMILES beside them. *: point of attachment. Orn(4R-OH,5R-OCH2CH2NMe3+) = C[N+](C)(C)CCO[C@@H](N[*:3])[C@H](O)C[C@H](N[*:1])C(=O)[*:2]; pTerphenylCO(4''-OnC5H11) = CCCCCOc1ccc(-c2ccc(-c3ccc(C(=O)*)cc3)cc2)cc1; hTyr(3S-OH,4S-OH) = N[C@H](C(=O)O)[C@H](O)[C@@H](O)c1ccc(O)cc1; Pro(3S-OH,4S-Me) = C[C@H]1CN[C@H](C(=O)O)[C@H]1O; Hyp = O=C(O)[C@@H]1C[C@@H](O)CN1

Columns and labels:
[1] = system: Candida albicans ATCC SC5314; assay: Prophylaxis, neutropenic ICR mouse candidiasis model, kidney CFU; conditions: for clearance of kidney CFU: 24 hours post-challenge
[2] = Plasma and lung epithelial lining fluid (ELF) concentrations in ICR mice, 20 mg/kg IP; format: in vivo, mouse; conditions: for Kp / half-life: 20 mg/kg
Procedure: At pre-dose, 1, 3, 6, 12, 24, 48, and 72 hours post-dose, 3 mice/timepoint were anesthetized/euthanized for blood collection (plasma) and bronchoalveolar lavage fluid (BALF) collection with 2×0.5 mL flushes of saline. Urea levels for plasma/BALF normalization for the volume of lung epithelial lining fluid (ELF) calculation were quantified using a commercially-available spectrophotometry-based assay. CD101 concentrations in plasma/BALF samples were measured by LC with electrospray ionization tandem mass spectrometric (LC-MS/MS) detection.
Urea for plasma/BALF normalization for ELF volume were quantified using spectrophotometry. CD101 concentrations in plasma/BALF samples were measured by LC-MS/MS. Total plasma concentrations were corrected for protein binding (99.2%).

[3] = Protein binding by ultracentrifugation, human plasma; format: in vitro ADME
Procedure: (§1) Concentrations in plasma ranging from 7 to 60 μg/mL were tested and resulting samples were analyzed by LC-MS/MS.

aspergillosis = assay: Human subject with aspergillosis, single oral dose (Example 4); format: in vivo; conditions: single dose of 50 mg-1200 mg acetate salt of CD101, oral formulation
Procedure: A human subject is diagnosed with aspergillosis using standard diagnostic procedures. The subject receives treatment with a single dose of 50 mg-1200 mg (e.g., 75±25 mg, 100±25 mg, 150±50 mg, 200±50 mg, 250±50 mg, 300±50 mg, 350±50 mg, 400±50 mg, 450±50 mg, 500±100 mg, 600±100 mg, 700±100 mg, 800±100 mg, 900±50 mg, 1000 mg±100 mg, or 1100±100 mg) of the acetate salt of CD101 administered in an oral formulation (e.g., in a pill, capsule, or liquid formulation). No other antifungal treatment is provided to the subject within one to three weeks before or after administration of the single dose CD101 treatment.

[4] = Protein binding by ultracentrifugation, mouse plasma; format: in vitro ADME; conditions: read-out: percent of bound CD101, mean (protein binding) (converted)
Procedure: as §1

[5] = Pharmacokinetics in healthy human adults (Phase 1); format: in vivo; conditions: for AUC: human, plasma, free drug, read-out: average 24 h AUC over a 7 day period
Source text: The in vitro activity of CD101 was previously evaluated as part of the SENTRY international surveillance program using CLSI broth microdilution methodology (M38-A2, M27-A3; Pfaller, et al 2017). […] These susceptibility data were then compared graphically to CD101 plasma concentrations from studies in healthy adults, adjusted for plasma protein binding. Nonclinical efficacy in a murine model of Pneumocystis pneumonia were also considered to evaluate CD101 doses for clinical investigation of antifungal prophylaxis.

C. glabrata = assay: Neutropenic murine disseminated candidiasis model, PK/PD targets, C. glabrata
[6] = Single-dose plasma pharmacokinetics in mice, IP; format: in vivo, mouse; conditions: IP doses of 1, 4, 16, and 64 mg/kg
Procedure: Plasma from groups of three mice per time point (1, 3, 6, 12, 24, 48, and 72-h) was collected. The plasma drug concentrations were determined by liquid chromatography-tandem mass spectrometry. A noncompartmental model was used in the pharmacokinetic analysis. Elimination half-life was calculated by nonlinear least-squares technique. The area under the concentration-time curve (AUC) was calculated by the trapezoidal rule. Pharmacokinetic exposures for doses not directly measured in the PK study were estimated by linear extrapolation for higher and lower dose levels and by interpolation for dose levels within the dose range studied given the linear PK results.

A. fumigatus ATCC 13073 = assay: Disseminated aspergillosis, treatment, neutropenic ICR mice (Example 17); format: in vivo, Aspergillus fumigatus
Source text: Survival monitored for ≥10 days.

[7] = C. glabrata, Median of 3 strains

CCCCCOc1ccc(-c2ccc(-c3ccc(C(=O)N[C@H]4C[C@@H](O)[C@@H](OCC[N+](C)(C)C)NC(=O)[C@@H]5[C@@H](O)[C@@H](C)CN5C(=O)[C@H]([C@@H](C)O)NC(=O)[C@H]([C@H](O)[C@@H](O)c5ccc(O)cc5)NC(=O)[C@@H]5C[C@@H](O)CN5C(=O)[C@H]([C@@H](C)O)NC4=O)cc3)cc2)cc1 [CD101] ({pTerphenylCO(4''-OnC5H11)}-[Orn(4R-OH,5R-OCH2CH2NMe3+)]T[Hyp][hTyr(3S-OH,4S-OH)]T[Pro(3S-OH,4S-Me)]; lactam 1-C)
clearance of kidney CFU ([1]; CD101 SC 10 mg/kg at Day −3 and Day −1): Complete clearance was observed in all animals
clearance of kidney CFU ([1]; CD101 SC 20 mg/kg on Day −3): all but one animal
kidney CFU burden ([1]; CD101 SC 20 mg/kg, Day −5, −3 or −1): reduced CFU burden regardless of prophylactic treatment day
kidney CFU ([1]; CD101 SC 5 or 10 mg/kg at Day −3 and Day −1): significant decrease in CFU
ELF half-life ([2]; 20 mg/kg IP): 32 h
mean maximum ELF concentration ([2]; 20 mg/kg IP): 15.1 µg/mL
mean maximum plasma concentration ([2]; 20 mg/kg IP): 30.1 µg/mL
plasma half-life ([2]; 20 mg/kg IP): 21.1 h
time of maximum plasma concentration ([2]; 20 mg/kg IP, first collection timepoint): 1 h
Kp ([2]; ICR, mouse, lung epithelial lining fluid (ELF), intraperitoneal, free-drug, read-out: ELF/Plasma AUClast ratio): 100
Kp ([2]; ICR, mouse, lung epithelial lining fluid (ELF), intraperitoneal, total-drug, read-out: ELF/Plasma AUClast ratio): 0.8
concentration at 72 h ([2]; ICR, mouse, lung epithelial lining fluid (ELF), intraperitoneal, 20 mg/kg IP, at 72 h): 4000 ng/mL
Kp ([2]; ICR, mouse, lung epithelial lining fluid (ELF), ip, 20 mg/kg IP, read-out: AUC exposure ratios of ELF/plasma): 0.8 to 0.95
half-life ([2]; ICR, mouse, lung epithelial lining fluid (ELF), ip, 20 mg/kg IP, read-out: ELF half-life (converted)): 1910 min
AUC ([2]; ICR, mouse, lung epithelial lining fluid (ELF), 20 mg/kg IP, read-out: mean ELF AUC): 802 µg·h/mL
AUC(0-t) ([2]; ICR, mouse, lung epithelial lining fluid (ELF), 20 mg/kg IP, read-out: mean ELF AUC0-72): 606 µg·h/mL
half-life ([2]; ICR, mouse, plasma, ip, 20 mg/kg IP, read-out: plasma half-life (converted)): 1260 min
AUC ([2]; ICR, mouse, plasma, 20 mg/kg IP, read-out: mean plasma AUC): 848 µg·h/mL
AUC(0-t) ([2]; ICR, mouse, plasma, 20 mg/kg IP, read-out: mean plasma AUC0-72): 762 µg·h/mL
free fraction in human vs mouse plasma [3]: ~3 ×
percent of bound CD101, mean ([3]; human plasma): 97.4%
aspergillosis infection at follow-up visit (aspergillosis): confirmed to be resolved
fraction unbound at 2.5 hr [4]: 0.008
free drug AUC0-168 ([5]; 200 mg dose): 15.4 mg·h/L
free drug AUC0-168 ([5]; 400 mg dose): 30.2 mg·h/L
time plasma concentrations above the MEC90 for A. fumigatus ([5]; both 400 mg and 200 mg): 7 days
AUC ([5]; 200 mg dose): ~2200 ng·h/mL
AUC ([5]; 400 mg dose): ~4300 ng·h/mL
mean unbound plasma concentrations relative to MIC90 for C. albicans ([5]; single dose of 400 mg, Phase 1 subjects): above the MIC90 for C. albicans for seven days
1 log kill 24 h Ave Free drug AUC/MIC (C. glabrata; C. glabrata 5592): 0.36
1 log kill dose (C. glabrata; C. glabrata 5592): 0.43 mg/kg
1 log kill free drug AUC0-168h/MIC (C. glabrata; C. glabrata 5592): 2.54
1 log kill total drug AUC0-168h/MIC (C. glabrata; C. glabrata 5592): 317.50
Stasis 24 h Ave free drug AUC/MIC (C. glabrata; C. glabrata 5592): 0.05
Stasis free drug AUC0-168h/MIC (C. glabrata; C. glabrata 5592): 0.35
Stasis total drug AUC0-168h/MIC (C. glabrata; C. glabrata 5592): 43.16
Static dose (C. glabrata; C. glabrata 5592): 0.06 mg/kg
1 log kill 24 h Ave Free drug AUC/MIC (C. glabrata; C. glabrata 10956): 1.20
1 log kill dose (C. glabrata; C. glabrata 10956): 17.25 mg/kg
1 log kill free drug AUC0-168h/MIC (C. glabrata; C. glabrata 10956): 8.42
1 log kill total drug AUC0-168h/MIC (C. glabrata; C. glabrata 10956): 1052.22
Stasis 24 h Ave free drug AUC/MIC (C. glabrata; C. glabrata 10956): 0.48
Stasis free drug AUC0-168h/MIC (C. glabrata; C. glabrata 10956): 3.35
Stasis total drug AUC0-168h/MIC (C. glabrata; C. glabrata 10956): 418.68
Static dose (C. glabrata; C. glabrata 10956): 6.29 mg/kg
1 log kill 24 h Ave Free drug AUC/MIC (C. glabrata; C. glabrata 35315): 0.42
1 log kill dose (C. glabrata; C. glabrata 35315): 2.39 mg/kg
1 log kill free drug AUC0-168h/MIC (C. glabrata; C. glabrata 35315): 2.94
1 log kill total drug AUC0-168h/MIC (C. glabrata; C. glabrata 35315): 367.06
Stasis 24 h Ave free drug AUC/MIC (C. glabrata; C. glabrata 35315): 0.07
Stasis free drug AUC0-168h/MIC (C. glabrata; C. glabrata 35315): 0.50
Stasis total drug AUC0-168h/MIC (C. glabrata; C. glabrata 35315): 62.50
Static dose (C. glabrata; C. glabrata 35315): 0.34 mg/kg
1 log kill 24 h Ave Free drug AUC/MIC (C. glabrata; C. glabrata, Mean of 3 strains): 0.66
1 log kill dose (C. glabrata; C. glabrata, Mean of 3 strains): 6.69 mg/kg
1 log kill free drug AUC0-168h/MIC (C. glabrata; C. glabrata, Mean of 3 strains): 4.63
1 log kill total drug AUC0-168h/MIC (C. glabrata; C. glabrata, Mean of 3 strains): 578.93
Stasis 24 h Ave free drug AUC/MIC (C. glabrata; C. glabrata, Mean of 3 strains): 0.20
Stasis free drug AUC0-168h/MIC (C. glabrata; C. glabrata, Mean of 3 strains): 1.40
Stasis total drug AUC0-168h/MIC (C. glabrata; C. glabrata, Mean of 3 strains): 174.78
Static dose (C. glabrata; C. glabrata, Mean of 3 strains): 2.23 mg/kg
1 log kill 24 h Ave Free drug AUC/MIC (C. glabrata; [7]): 0.42
1 log kill dose (C. glabrata; [7]): 2.39 mg/kg
1 log kill free drug AUC0-168h/MIC (C. glabrata; [7]): 2.94
1 log kill total drug AUC0-168h/MIC (C. glabrata; [7]): 367.06
Stasis 24 h Ave free drug AUC/MIC (C. glabrata; [7]): 0.07
Stasis free drug AUC0-168h/MIC (C. glabrata; [7]): 0.5
Stasis total drug AUC0-168h/MIC (C. glabrata; [7]): 62.50
Static dose (C. glabrata; [7]): 0.34 mg/kg
kill at high doses (C. glabrata; C. glabrata, a number of strains): > 2 log10
elimination half-life [6]: 29 to 41 h
half-life ([6]; mouse, plasma, ip, 64 mg/kg, read-out: elimination half-life): 1680 to 2460 min
AUC(0-inf) ([6]; mouse, plasma): 93.2 to 40500 µg·h/mL
Cmax ([6]; mouse, plasma, read-out: Peak (Cmax) levels): 2600 to 76700 ng/mL
survival compared to vehicle (A. fumigatus ATCC 13073; CD101 IV/IP 0.2, 1, or 5 mg/kg BID×5d): significant increase in survival compared to vehicle
survival (A. fumigatus ATCC 13073; single 2 mg/kg vs 0.2 mg/kg BID×5d): Survival was comparable
